Experimental data: patent US20090074844A1, “TRENADERMAL ABSORPTION PREPARATION” (ONO PHARMACEUTICAL CO., LTD., priority 2005, published 2009)

Legend:
[1] = In vitro skin permeability test (1), Franz type cell; assay type: in vitro ADME, rat; settings: for cumulative permeation quantity until 24 hours: patch (pharmaceutical preparation 1A, 0.2 mg/cm^2) on rat abdominal skin, determined as compound B or PGE1, FIG. 1
Protocol: The hair-removed skin extracted from the abdominal region of each of male Wister rats (7 weeks of age, Wister/Slc, n=3) was attached to a Franz type cell (1.1 cm in diameter). The aforementioned pharmaceutical preparation 1A prepared in Example 1 was applied to the stratum corneum of the hair-removed skin extracted from the abdominal region. Hanks' buffer (HBSS) (Sigma, pH 7.4) was applied to the dermal layer side cell. HBSS (200 μL) was periodically collected from the dermal layer side cell, and compound B as the active form of compound A or PGE1 was determined by the HPLC method under the following conditions. Cumulative permeation quantities until 24 hours were determined to calculate average values.
Compound A (Active Form: Compound B)
Column: YMC-Pack ODS A-302 (4.6 mm I.d., 150 mm),
Column temperature: 50° C.,
Moving bed: 0.1% phosphoric acid aqueous solution: acetonitrile=7:3,
Detection wavelength: 220 nm,
Internal standard: ethyl p-hydroxybenzoate.
Column temperature: 30° C.,
Moving bed: 0.02 M potassium hydrogenphosphate aqueous solution:acetonitrile=3:2,
Detection wavelength: 205 nm,
Internal standard: n-propyl p-hydroxybenzoate.
FIG. 1 is a result of the in vitro skin permeability test (1) in Test Example (1) of Biological Examples. The cumulative permeation quantity of compound A represents a value calculated by converting the detected value of compound B into compound A.

[2] = Drug permeability test using human skin, Franz type cell, LC/MS/MS; assay type: in vitro ADME; settings: preparation of Example 3 (70 μg/cm^2, oleyl alcohol), slope of cumulative permeation quantities, FIG. 4, n=3
Protocol: Drug permeability test using human skin Human skin purchased from Asterand (abdominal skin of a person, epidermal-dermal skin (no heat treatment), n=3) was attached to a Franz type cell (1.78 cm^2), and the pharmaceutical preparation produced in Example 3 was applied to the stratum corneum side. Physiological saline (8 ml) was applied to the dermal layer side cell. From the dermal layer side cell, 1 ml portion thereof was periodically collected, and the compound A and compound B were determined by LC/MS/MS method under the following conditions. Cumulative permeation quantities until 48 hours were determined to calculate average values.
LC/MS/MS Measuring Conditions (HPLC)
Measuring instrument: Perkin-Elmer Series 200 Micro-pumps and CTC […]
Flow rate: 300 μl/minute Injection quantity: 5 μl Running time: 4.5 minutes Retention time: compound A; until 3.45 minutes/compound B; until 3.25 minutes Mass spectrometry […]
Human skin permeability of compound A and compound B which is its active form was measured to calculate the cumulative permeation quantities, with the results shown in FIG. 4. Their skin permeation rates were calculated from the slope of cumulative permeation quantities in FIG. 4. […]
FIG. 4 is a result of a human skin permeability test which used the pharmaceutical preparations produced in Example 3. It represents cumulatively detected amounts of compound A and compound B.

Compound: CCCCC[C@H](O)/C=C/[C@H]1[C@H](O)CC(=O)[C@@H]1CCCCCCC(=O)O [PGE1, reference compound]
- cumulative permeation quantity until 24 hours ([1]; HBSS pH 7.4): high cumulative permeation quantity was not obtained

Compound: COCc1cccc(C[C@H](O)/C=C/[C@H]2[C@H](O)CC(=O)[C@@H]2CCSCCCC(=O)OC)c1 [compound A, methyl 4-{[2-((1R,2R,3R)-3-hydroxy-2-{(1E,3S)-3-hydroxy-4-[3-(methoxymethyl)phenyl]but-1-enyl}-5-oxocyclopentyl)ethyl]sulfanyl}butanoate]
- skin permeation rate [2]: 0.16±0.04 μg/cm^2/hr
- cumulative permeation quantity until 24 hours ([1]; HBSS pH 7.4): high cumulative permeation quantity was obtained
- conversion of compound A into the active form, compound B, during permeation through the skin ([1]; patch preparation 1A on rat abdominal skin): completely converted
- compound A in the dermal layer side cell ([1]; patch preparation 1A on rat abdominal skin, HBSS pH 7.4): not detected

Compound: COCc1cccc(C[C@H](O)/C=C/[C@H]2[C@H](O)CC(=O)[C@@H]2CCSCCCC(=O)O)c1 [compound B, 4-{[2-((1R,2R,3R)-3-hydroxy-2-{(1E,3S)-3-hydroxy-4-[3-(methoxymethyl)phenyl]but-1-enyl}-5-oxocyclopentyl)ethyl]sulfanyl}butanoic acid]
- skin permeation rate [2]: 0.07±0.01 μg/cm^2/hr
